Reference: patent US20170296498A1, “Rapid Relief of Motor Fluctuations in Parkinson's Disease” (Civitas Therapeutics, Inc., priority 2014, published 2017)

Test system: Parkinson's disease patients in the OFF state
Test: Phase 2 study of pulmonary levodopa in PD patients: plasma levodopa concentration vs UPDRS
Assay type: in vivo, human
Settings: FIG. 8, plasma concentration vs UPDRS
Protocol: The twenty four PD (24) patients treated in this study underwent serial evaluations of L-dopa plasma levels, motor response, and safety at each visit. The patients were administered the study drug in the OFF state with the serial evaluations starting prior to dosing and continuing for up to 180 minutes post-dose. Motor function was measured using a tapping test, the Unified Parkinson's Disease Rating Scale Part III (UPDRS III), and subjective evaluation of “meaningful” ON and OFF. Safety parameters monitored included pulmonary function, clinical laboratory data, EGCs, and vital signs (blood pressure, heart rate, and orthostatic blood pressure). This study was designed to measure the time, magnitude, and durability of pulmonary levodopa's effect on motor function, to evaluate the safety and tolerability of pulmonary levodopa in Parkinson's disease patients.
In FIG. 8, patient's plasma levodopa concentrations are being compared to UPDRS scores. UPDRS is a standard test for Parkinson's disease patients to test their response to drug treatment and their disease progression. […] The different baseline levels of levodopa plasma relate to the fact that each patient has a different effective dose or effective concentration for the levodopa to have an effect on each patient. […]

SMILES: N[C@@H](Cc1ccc(O)c(O)c1)C(=O)O [L-Dopa, levodopa]
- levodopa plasma concentration difference between being in the off state and in the on state: 200 to 400 ng/mL
